# Measurements reported in patent EP1144423B1, “BIS-TERPYRIDINE-PLATINUM(II) COMPLEXES” (ISIS INNOVATION LIMITED, priority 1999, dated 2000).
# Read-outs that look alike come from different tables or passages of the source.
# Key:
# cell line SKOV3 [1] = settings: reported in WO 97/27202; cited from earlier work
# [2] = test system: cisplatin resistant CH1 cell line (CH1cis^R); settings: 96 h exposure, value reported in WO97/27202; cited from earlier work
# calf-thymus (ct)-DNA = settings: literature values; cited from earlier work
# DNA = settings: intercalation into DNA, literature value [4]; cited from earlier work
# [3] = maximum tolerated dose, single intraperitoneal injection; assay type: in vivo; settings: for loss of body weight: 25, 50 and 100 mg/kg i.p., body weight 2 weeks post-dosing; for deaths: single intraperitoneal injection at 25, 50 and 100 mg/kg; for signs of induced toxicity: single intraperitoneal injection
# Protocol: The maximum tolerated dose was determined for A15(4NO3) and I15(4NO3).
# Drugs were administered as a single intraperitoneal injection at 25, 50 and 100 mg/kg. Animals were observed daily for signs of induced toxicity and body weight determined 2 weeks post-dosing.
# cell line A2780 = test: in vitro cytotoxicity, sulforhodamine B growth inhibition assay; assay type: cell-based, human; settings: 96 h exposure
# Protocol: (§1) The IC50 values of the bis-2,2':6',2"-terpyridine Pt(II) complexes (1, Z=trans-CH=CH-, Y=H), (1, Z=trans-CH=CH-, Y=Cl) and (1, Z=trans-CH=CH-, Y=4-Br.C6H4), were reported in PCT/GB97/00218 (WO97/27202) and referred to as A14, I14 and Q14 respectively. They were evaluated for in vitro cytotoxicity against five human ovarian carcinoma cell lines which included two selected for resistance to cisplatin (Ch1cis^R and A2780cis^R) and one for resistance to doxorubicin (Ch1dox^R). The compounds were exposed to cells for 96 h and growth inhibition assessed using the sulforhodamine B protein staining assay.
# cell line SKOV3 [4] = test: as above; assay type: cell-based, human
# Protocol: as §1
# [5] = test system: A2780 cisplatin resistant cell line (A2780cis^R); test: as above; assay type: cell-based, human
# Protocol: as §1
# [6] = test system: doxirubicin resistant CH1 cell line; assay type: cell-based, human; settings: doxirubicin resistant CH1 cell line versus CH1
# Protocol: as §1
# [7] = test system: cisplatin resistant CH1 cell line (CH1cis^R); test: in vitro cytotoxicity, sulforhodamine B growth inhibition assay; assay type: cell-based, human; settings: 96 h exposure
# Protocol: as §1
# CH1 cell line = test: as above; assay type: cell-based, human; settings: 96 h exposure
# Protocol: as §1
# poly[d(A-T)2] = settings: second binding mode, circular dichroism; cited from earlier work
compound,measurement,setting,value
"4,4'-vinylenedipyridine bis[2,2':6',2""-terpyridine platinum (II)] [A14 (4BF4)]",antitumour activity compared with cisplatin,cell line SKOV3 [1],more effective than cisplatin
same,IC50,[2],< 1 µM
"hydroxyethanethiolate-2,2':6',2""-terpyridine-platinum(II) [hydroxy-ethanethiolate complex]",binding association constants with ct-DNA,calf-thymus (ct)-DNA,83000 M⁻¹
F[B-](F)(F)F.[OH][Pt-2]12[n+]3ccccc3-c3cccc([n+]31)-c1cccc[n+]12 [hydroxy-platinum complex],binding constant,DNA,approximately 7 x 10^4 M^-1
"Clc1cc2[n+]3c(c1)-c1cccc[n+]1[Pt-2]3([n+]1ccc(C#CC#Cc3cc[n+]([Pt-2]45[n+]6ccccc6-c6cc(Cl)cc([n+]64)-c4cccc[n+]45)cc3)cc1)[n+]1ccccc1-2.O=[N+]([O-])[O-].O=[N+]([O-])[O-].O=[N+]([O-])[O-].O=[N+]([O-])[O-] [I15, 1,4-Bis(4-pyridyl)butadiyne bis[(4'-chloro-2,2':6'2""-terpyridine)platinum(II)] tetranitrate]",loss of body weight,[3],no loss of body weight
same,deaths,[3],no deaths
same,signs of induced toxicity,[3]; 50 mg/kg,not at 50 mg/kg
same,signs of induced toxicity,[3]; 100 mg/kg,some indication of toxicity (mild ataxia/twitching)
same,IC50,cell line A2780,< 1 µM
same,antitumour activity compared with cisplatin,cell line SKOV3 [4],more effective than cisplatin
same,times more effective than cisplatin,[5]; A2780cis^R cell line,13 times
same,resistance factors (RF),[5]; A2780cis^R versus A2780,1.1
"O=[N+]([O-])[O-].O=[N+]([O-])[O-].O=[N+]([O-])[O-].O=[N+]([O-])[O-].O=[N+]([O-])[O-].O=[N+]([O-])[O-].[NH3+][Pt-2]([NH3+])([n+]1ccc(-c2cc[n+]([Pt-2]34[n+]5ccccc5-c5cc(Cl)cc([n+]53)-c3cccc[n+]34)cc2)cc1)[n+]1ccc(-c2cc[n+]([Pt-2]34[n+]5ccccc5-c5cc(Cl)cc([n+]53)-c3cccc[n+]34)cc2)cc1 [I20, trans-Diamminebis(4,4'-dipyridyl)platinum(II) bis[(4'-chloro-2,2':6',2""-terpyridine)platinum(II)] hexanitrate]",resistance factors (RF),[6],0.8
same,IC50,[7],< 1 µM
same,IC50,CH1 cell line,< 1 µM
"C(C#Cc1cc[n+]([Pt-2]23[n+]4ccccc4-c4cccc([n+]42)-c2cccc[n+]23)cc1)#Cc1cc[n+]([Pt-2]23[n+]4ccccc4-c4cccc([n+]42)-c2cccc[n+]23)cc1.O=[N+]([O-])[O-].O=[N+]([O-])[O-].O=[N+]([O-])[O-].O=[N+]([O-])[O-] [A15, 1,4-Bis(4-pyridyl)butadiyne bis[(2,2':6',2""-terpyridine)platinum(II)] tetranitrate]",resistance factors (RF),[6],0.6
same,loss of body weight,[3],no loss of body weight
same,deaths,[3],no deaths
same,signs of induced toxicity,[3]; 100 mg/kg,no sign of toxicity or body weight loss
same,IC50,[7],< 1 µM
same,IC50,CH1 cell line,< 1 µM
"Cc1cc[n+]([Pt-2]23[n+]4ccccc4-c4cccc([n+]42)-c2cccc[n+]23)cc1.F[B-](F)(F)F.F[B-](F)(F)F [4-Picoline-2,2':6',2""-terpyridine-platinum(II) bis-tetrafluoroborate]",equilibrium binding constant,poly[d(A-T)2],about 1 x10^6 M^-1
"Clc1cc2[n+]3c(c1)-c1cccc[n+]1[Pt-2]3([n+]1ccc(-c3cc[n+]([Pt-2]45[n+]6ccccc6-c6cc(Cl)cc([n+]64)-c4cccc[n+]45)cc3)cc1)[n+]1ccccc1-2.O=[N+]([O-])[O-].O=[N+]([O-])[O-].O=[N+]([O-])[O-].O=[N+]([O-])[O-] [I18, 4,4'-Dipyridine bis[(4'-chloro-2,2':6',2""-terpyridine)platinum(II)] tetranitrate]",IC50,[7],< 1 µM
same,antitumour activity compared with cisplatin,cell line SKOV3 [4],more effective than cisplatin
same,IC50,CH1 cell line,< 1 µM
[Cl-].[Cl-].[Pt+2].c1ccc(-c2cccc(-c3ccccn3)n2)nc1 [chloroplatinum complex],binding association constants with ct-DNA,calf-thymus (ct)-DNA,essentially the same binding constant
